Laboratory results as given in publication PMC4226810 (Journal of pharmacokinetics and pharmacodynamics, 2014).
Read-outs that look alike come from different tables or passages of the source.

Key:
[1] = Fraction unbound by modified ultra-filtration method; assay type: in vitro ADME; conditions: plasma
[2] = Plasma pharmacokinetics after oral administration in MOLM13 xenograft mice; assay type: in vivo, mouse; conditions: for V / Vmax: one compartment model; for Km: CrTac:NCR-Foxn1nu nude; for Vmax: Michaelis-Menten elimination
MOLM13-Luc tumors = assay: Orthotopic tumor burden; assay type: in vivo, mouse; conditions: population mean
[3] = system: Rb^S780 phosphorylation (biomarker of CDK4/6 activity); assay: Subcutaneous MOLM13 tumor cellular signaling: pRb; conditions: 50 mg/Kg QD multiple-day dosing, at 240 hr; baseline pRb(0) 82,600
[4] = system: STAT5^Y694 phosphorylation (biomarker of FLT3^ITD activity); assay: Subcutaneous MOLM13 tumor cellular signaling: pSTAT5; assay type: in vivo, mouse; conditions: for inhibition of phosphorylation of STAT5 at the time of maximum effect: subcutaneous tumor
[5] = system: STAT5^Y694 phosphorylation; assay: Orthotopic MOLM13-Luc tumor cellular signaling: pSTAT5; assay type: in vivo, mouse; conditions: model estimate (%RSE)
[6] = absorption rate constant fixed based on previous studies ref 21, cited from earlier work

CC(C)(C)c1cc(NC(=O)Nc2ccc(-c3cn4c(n3)sc3cc(OCCN5CCOCC5)ccc34)cc2)no1 [AC220, quizartinib]
fraction unbound [1]: 0.0107
k el ([2]; CrTac:NCR-Foxn1^nu nude, mouse, plasma, oral): 5.31e-05 s⁻¹
V ([2]; estimate (%RSE)): 0.0964 (10) L

C[C@H]1CC[C@H](n2c3cnccc3c3cnc(Nc4ccc5c(n4)CCN(C(=O)CO)C5)nc32)CC1 [AMG925]
HR Hill coefficient (MOLM13-Luc tumors; pRb term of orthotopic tumor burden model): 14.9
HS Hill coefficient (MOLM13-Luc tumors; pSTAT5 term of orthotopic tumor burden model): 15.1
measured value of pRb (mean+/−sd) [3]: 72870+/−1247
ratio of IC50 on pSTAT5, subcutaneous xenograft over orthotopic xenograft ([4]; 27.7 nM vs 6.08 nM): 4 fold
measured value of pSTAT5 (mean+/−sd) ([4]; 50 mg/Kg QD multiple-day dosing, at 240 hr, baseline pSTAT5(0) 18,000): 17020+/−1133
inhibition of phosphorylation of STAT5 at the time of maximum effect ([4]; single dose 150mg/kg oral): almost completely inhibit
Km ([2]; mouse, plasma, oral): 0.0945 µM
Vmax ([2]; estimate (%RSE)): 4.16 (3.1) nmol/h
ka ([2]; absorption rate constant, estimate (%RSE)): 1.00 (20) h^−1
V ([2]; estimate (%RSE)): 0.109 (7.4) L
Hill coefficient of pSTAT5 inhibition (HAMG) [5]: 1.92 (4.9)

CNC(=O)c1cc(Oc2ccc(NC(=O)Nc3ccc(Cl)c(C(F)(F)F)c3)cc2)ccn1 [sorafenib]
inhibition of phosphorylation of STAT5 at the time of maximum effect ([4]; single dose 10mg/kg oral): almost completely inhibit
ratio of IC50 for pSTAT5 inhibition to IC50 for pRb inhibition ([4]; subcutaneous tumor signaling model): 17 fold
Km ([2]; mouse, plasma, oral): 0.00985 µM
Vmax ([2]; estimate (%RSE)): 0.0736 (12) nmol/h
V ([2]; estimate (%RSE)): 0.0247 (4.4) L
ka (Fixed) [6]: 3 h⁻¹
ka (Fixed) ([6]; listed as Sorafenib): 3 (Fixed) h^−1
